One experiment relates to HT-29. As to the kind of experiment: Cytotoxicity against human HT-29 cells assessed as inhibition of cell growth incubated for 72 hrs by MTT assay. Type of experiment: functional, cell-based. Particulars: HT-29, 72 h. In general terms: Tetrazolium dyes change colour on reduction, which living cells bring about.
For the next experiment, the system named is HCT-116. As to the kind of experiment: Cytotoxicity against human HCT-116 cells assessed as inhibition of cell growth incubated for 72 hrs by MTT assay. Format: functional, cell-based. Conditions: HCT-116, 72 h.

Bounds are passed on as bounds.

As for `CC[C@@]12CCC[N+]3([O-])CC[C@@]4(C(=Nc5ccccc54)[C@@H](O)C1)[C@@H]23` (stereo partly specified), the 50% inhibitory concentration (IC50) with HT-29 and with HCT-116 was more than 10 µM throughout.

In the case of `CC[C@]1(CCC(=O)OC)CCCNC1`, the concentration for half-maximal inhibition (IC50) in the experiment on HT-29 and in the experiment on HCT-116 was more than 10 µM in each case.

As to `CC[C@@]12CCO[C@@H]1N(CC[C@]1(O)C(=O)Nc3ccccc31)CC[C@H]2O`, the 50% inhibitory concentration (IC50) with HT-29 and in the experiment on HCT-116 was more than 10 µM throughout.

As for `COC(=O)[C@H]1CO[C@H](C)[C@]2(O)C[N@+]3([O-])CCc4c([nH]c5ccccc45)[C@@H]3C[C@H]12`, the IC50 with HT-29 and in the experiment on HCT-116 was more than 10 µM throughout.

For the molecule `CC[C@@]12CCC[N@@+]3([O-])C[C@@H]4[C@@](O)(c5ccccc5N[C@]4(O)CC1)[C@@H]23`, the IC50 in the experiment with HT-29 was 7.1 µM; with HCT-116, more than 10 µM.

As for `CC[C@]12CCCN[C@]13/C(=C\C(=O)O)c1ccccc1N3C(=O)CC2`, the 50% inhibitory concentration (IC50) in the experiment on HT-29 and in the experiment with HCT-116 was more than 10 µM throughout.

Turning to `CC[C@]12CCCN(C1)C(=O)CC2`, the figures for the IC50 with HT-29 and in the experiment on HCT-116 were 7.2 µM and more than 10 µM, respectively.

As for `COc1cccc2c1C(=O)c1c(O)c3c(c(O)c1C2=O)C[C@@](O)(C(=O)CO)C[C@@H]3O[C@H]1C[C@H](N)[C@H](O)[C@H](C)O1` [DOXORUBICIN], the IC50 in the experiment with HT-29 amounted to 0.06 µM; in the experiment with HCT-116, 0.04 µM.

One may read the IC50 as the midpoint of a concentration-inhibition curve.

Values taken from ChEMBL document CHEMBL5357051, “Quinoline, Indole, and Isogranatanine Alkaloids from Malayan Leuconotis eugeniifolia” (J Nat Prod, 2024).
